How the values were obtained:
HEK293 cells [1] = test: Preliminary screening as DNA vectors, GFP transfection of HEK293 cells; format: cell-based; details: HEK293 cells; lipid/DOPE liposome with 75 ng plasmid DNA (psin-EGFP-IRES-Puro); number of cells expressing GFP divided by total number of nuclei (Hoechst)
Summary of the method: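 Lipid + DOPE liposomes (NaOAc, pH 5.6) complexed w/ 75 ng psin-EGFP-IRES-Puro, 30 min RT; added to 3-5×10^4 HEK293/well, 37° C. Hoechst 0.2 μg/mL at 20-24 h, imaged after further 20-24 h. Efficiency = GFP+ cells / total nuclei.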

HEK293 cells [2] = test: Preliminary screening as mRNA vectors, EGFP mRNA transfection of HEK293 cells; format: cell-based; details: HEK293 cells, 96-well plates, EGFP mRNA 50 ng per well; percentage of GFP fluorescent cells relative to total number of cells (Hoechst)
Summary of the method: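 Each well of HEK293 cells received 50 ng of EGFP mRNA. Efficiency was expressed as percent GFP-expressing cells over Hoechst-defined total cell number.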

Structure (SMILES) | Absolute DNA transfection efficiency in HEK293 cells (HEK293 cells [1]) | Absolute mRNA transfection efficiency in HEK293 cells (HEK293 cells [2])
CCCCCCCCCCCCSc1nc(NCCN2CCN(C)CC2)nc(SCCCCCCCCCC)n1 [Compound S10S12D5] | 9.8% | 33.5%
CCCCCCCCCCCCCCCCSc1nc(NCCN(CC)CC)nc(SCCCCCCCCCCCCCC)n1 [Compound S14S16D7] | 1.1% | 1.8%
CCCCCCCCCCCCCCCCCCSc1nc(NCCN2CCN(C)CC2)nc(SCCCCCCCCCCCCCCCC)n1 [Compound S16S18D5] | 1.7% | 0.3%
CCCCCCCCCCCCCCCCCCNc1nc(NCCCCCCCCCCCC)nc(NCCN2CCOCC2)n1 [Compound N12N18D2] | 0.6% | 0.9%
CCCCCCCCCCCCCCCCNc1nc(NCCN2CCCCC2)nc(N(CCCCCCCCCCCC)CCCCCCCCCCCC)n1 [N16^2N12D4] | 3.2% | 0.0%
CCCCCCCCCCCCN(CCCCCCCCCCCC)c1nc(NCCCCCCCC)nc(NCCN2CCCCC2)n1 [N8^2N12D4] | 0.0% | 0.2%
CCCCCCCCCNc1nc(NCCCCCCCCC)nc(NCCN(CC)CC)n1 [Compound N9N9D7] | 0.0% | 0.3%
CCCCCCCNc1nc(NCCCCCCC)nc(NCC2CCN(C)CC2)n1 [Compound N7N7D10] | 0.1% | 0.0%
CCCCCCCCCCCCN(CCCCCCCCCCCC)c1nc(NCCN2CCOCC2)nc(N(CCCCCCCCCCCC)CCCCCCCCCCCC)n1 [2N12^2N12D2] | 0.0% | 1.9%
CCCCCCCCCCCCCCCCSc1nc(NCC2CCN(C)CC2)nc(SCCCCCCCC)n1 [Compound S8S16D10] | 75.2% | 98.3%
CCCCCCCCCCCCCCSc1nc(NCCN2CCN(C)CC2)nc(SCCCCCCCCCC)n1 [Compound S10S14D5] | 15.7% | 12.9%
CCCCCCCCCCCCN(CCCCCCCCCCCC)c1nc(NCCCCCC)nc(NCCCN2CCOCC2)n1 [N6^2N12D8] | 0.0% | 0.0%
CCCCCCCCCCCCCCCSc1nc(NCCN2CCOCC2)nc(SCCCCCCCCCCCCCCC)n1 [Compound S15S15D2] | 0.0% | 0.0%
CCCCCCCCCCCSc1nc(NCCCN2CCN(C)CC2)nc(SCCCCCCCCCC)n1 [Compound S10S11D9] | 13.6% | 60.6%
CCCCCCCCCCCCCNc1nc(NCCCCCC)nc(NCCCN2CCOCC2)n1 [Compound N6N13D8] | 0.0% | 0.0%
CCCCCCCCCCCCCCCCSc1nc(NCCN2CCCC2)nc(SCCCCCCCCCCCCCC)n1 [Compound S14S16D3] | 0.4% | 0.2%
CCCCCCCCCCCCCCSc1nc(NCCCN(C)C)nc(SCCCCCCCC)n1 [Compound S8S14D6] | 16.2% | 79.5%
CCCCCCCCCCCCCCCCSc1nc(NCCN2CCCCC2)nc(SCCCCCCCCCCCCCCC)n1 [Compound S15S16D4] | 2.0% | 3.2%
CCCCCCCCCCCCCCCCCCSc1nc(NCCCN(C)C)nc(SCCCCCCCCCCCCCCCC)n1 [Compound S16S18D6] | 0.2% | 1.8%
CCCCCCCCCCCCCCCNc1nc(NCCCCCCCCCCCCC)nc(NCCCN(C)C)n1 [Compound N13N15D6] | 0.3% | 0.0%
CCCCCCCCCCCCCCCCCCNc1nc(NCCCCCCCC)nc(NCCN2CCCC2)n1 [Compound N8N18D3] | 9.8% | 39.9%
CCCCCCCCCCCCCCCCCCSc1nc(NCCN2CCCCC2)nc(SCCCCCCCCCCCCCCC)n1 [Compound S15S18D4] | 0.3% | 0.0%
CCCCCCCCCNc1nc(NCCCCCCC)nc(NCCN(C)C)n1 [Compound N7N9D1] | 0.6% | 0.0%
CCCCCCCCCCCCNc1nc(NCCCCCCC)nc(NCCN(C)C)n1 [Compound N7N12D1] | 0.2% | 0.1%

Structure (SMILES) | Absolute DNA transfection efficiency in HEK293 cells (HEK293 cells [1]) | Absolute mRNA transfection efficiency in HEK293 cells (HEK293 cells [2])
CCCCCCCCCCCCCCCSc1nc(NCCN2CCCC2)nc(SCCCCCCCCCC)n1 [Compound S10S15D3] | 7.6% | 19.6%
CCCCCCCCCCCCCCSc1nc(NCCN(C)C)nc(SCCCCCCCCCCCC)n1 [Compound S12S14D1] | 0.6% | 0.0%
CCCCCCCCCCCCCNc1nc(NCCCCCCCCCCCCC)nc(NCCCN2CCN(C)CC2)n1 [Compound N13N13D9] | 1.1% | 0.2%
CCCCCCCCCCCCCNc1nc(NCCCCCCCCC)nc(NCCCN2CCOCC2)n1 [Compound N9N13D8] | 0.0% | 0.0%
CCCCCCCCCCCCCCCNc1nc(NCCCCCC)nc(NCCN2CCCC2)n1 [Compound N6N15D3] | 0.6% | 0.3%
CCCCCCCCNc1nc(NCCCCCC)nc(NCCN(C)C)n1 [Compound N6N8D1] | 0.0% | 0.0%
CCCCCCCCNc1nc(NCCCCCCC)nc(NCCN2CCCCC2)n1 [Compound N7N8D4] | 0.2% | 0.0%
CCCCCCCCCCCCCCSc1nc(NCCN(C)C)nc(SCCCCCCCC)n1 [Compound S8S14D1] | 8.3% | 0.7%
CCCCCCCCCCCCCNc1nc(NCCCCCCC)nc(NCCN(CC)CC)n1 [Compound N7N13D7] | 0.1% | 0.0%
CCCCCCCCCCCCCCCCCCNc1nc(NCCCCCCCCCCCCC)nc(NCCCN(C)C)n1 [Compound N13N18D6] | 3.0% | 14.7%
CCCCCCCCCCCCN(CCCCCCCCCCCC)c1nc(NCCCCCCC)nc(NCC2CCN(C)CC2)n1 [N7^2N12D10] | 1.4% | 2.0%
CCCCCCCCCCCCCCCCSc1nc(NCCN(C)C)nc(SCCCCCCCC)n1 [Compound S8S16D1] | 4.6% | 2.2%
CCCCCCCCCCCNc1nc(NCCCCCCCCC)nc(NCCN2CCN(C)CC2)n1 [Compound N9N11D5] | 0.0% | 1.1%
CCCCCCNc1nc(NCCCCCC)nc(NCCN2CCN(C)CC2)n1 [Compound N6N6D5] | 0.0% | 0.0%
CCCCCCCCCCCCCCCNc1nc(NCCCCCCCCCCC)nc(NCCN(C)C)n1 [Compound N11N15D1] | 1.3% | 0.6%
CCCCCCCCNc1nc(NCCCCCCCC)nc(NCCCN2CCOCC2)n1 [Compound N8N8D8] | 0.0% | 0.0%
CCCCCCCCCCCCCCCCCCSc1nc(NCCN2CCCCC2)nc(SCCCCCCCCCCCCCCCC)n1 [Compound S16S18D4] | 0.3% | 0.3%
CCCCCCCCCNc1nc(NCCCCCCCC)nc(NCCN2CCCCC2)n1 [Compound N8N9D4] | 0.0% | 0.0%
CCCCCCCCCCCCCCCSc1nc(NCCN(CC)CC)nc(SCCCCCCCC)n1 [Compound S8S15D7] | 13.8% | 0.0%
CCCCCCCCCCCCCCCCCCNc1nc(NCCCCCCCCCCCCCCCCCC)nc(NCCCN(C)C)n1 [Compound N18N18D6] | 0.3% | 4.4%
CCCCCCCCCCCCCCCNc1nc(NCCN(CC)CC)nc(N(CCCCCCCCCCCC)CCCCCCCCCCCC)n1 [N15^2N12D7] | 1.3% | 0.0%
CCCCCCCCCCCCCCCSc1nc(NCCCN2CCN(C)CC2)nc(SCCCCCCCCCC)n1 [Compound S10S15D9] | 3.9% | 3.8%
CCCCCCCCCCCCCCCNc1nc(NCCCCCCCCCCCCC)nc(NCCN(CC)CC)n1 [Compound N13N15D7] | 0.8% | 3.7%
CCCCCCCCCCCCCNc1nc(NCCCCCCC)nc(NCCN(C)C)n1 [Compound N7N13D1] | 1.0% | 0.4%

— US20230123334A1, “AMINO LIPID COMPOUND, PREPARATION METHOD THEREFOR, AND APPLICATION THEREOF” (SHENZHEN SHENXIN BIOTECHNOLOGY CO., LTD., priority 2020, published 2023)
